The values below come from article PMC12434495 (Chemical Science, 2025).

One data set concerns α-thrombin. Kind of data set: human α-thrombin. As to conditions: 37 °C, up to 4 h.
For data set [1] the following is noted: cited from earlier work.

In the data set on α-thrombin, “GEPGAPIDYDEYGDSSEEVGGAEVAQPKLYQRGEGGNGMEPIPEDYLQ (the three Y O-sulfated, R1,2,3 = SO3-)” showed a not cleaved below 10% cleavage after 4 h.
On to bivalirudin, for which, in data set [1], the “plasma half-life in vivo” value is given as around 30 min.
